Data as given in publication PMC9298194, “Clinical Pharmacokinetics of Daprodustat: Results of an Absorption, Distribution, and Excretion Study With Intravenous Microtracer and Concomitant Oral Doses for Bioavailability Determination” (Clinical Pharmacology in Drug Development, 2021).
Several values for one entry are separate records, joined by “and”; a condition that tells them apart may be missing. Identical values can stand only once. Marks after values point to notes of the source that are not given here.

Key:
[1] = Blood and plasma total radioactivity pharmacokinetics after [14C]-GSK1278863; assay type: in vivo, human; details: for tmax, total radioactivity: median (range)
Protocol: As per standard practice for administration of radiolabeled drug, the IV and oral dosing solutions were analyzed for daprodustat via assessment of the radioactivity and through application of the predetermined specific activity. Whole blood samples were collected for measurement of each of the following: blood total radioactivity in period 2 and plasma total radioactivity in period 1, plasma concentrations of daprodustat, and the 6 predominant circulating metabolites in periods 1 and 2. Blood samples were collected at 1, 3, and 6 hours after dosing for blood assessments. Blood samples were collected for plasma assessments before dosing and at 0.50, 1, 1.25, 1.5, 2, 3, 4, 6, 8, 10, 12, 24, 36, 48, 72, 96, 120, and 144 hours after dosing.
Whole blood samples for unlabeled assays were collected into K3 ethylenediaminetetraacetic acid tubes, gently inverted several times and immediately placed on ice water. Samples were then centrifuged at 1500 × g for 15 minutes; the supernatant plasma was transferred to Nunc tubes and stored at −20°C before shipment. Samples for unlabeled daprodustat and specific assay metabolite measurements were shipped frozen to PPD Laboratories (Middleton, Wisconsin). Samples for radioactivity measurements were shipped frozen to either GSK Research and Development (Ware, Hertfordshire, UK; period 1) or Covance (period 2). Some period 2 plasma samples were subsequently analyzed by accelerator mass spectrometry (AMS) at Ware (UK) after being not quantifiable by LSC analysis.
Human urine, feces, and blood samples from treatment period 2 were analyzed by Covance using LSC. The LLQ for urine using LSC was 5.63 ng Eq/mL, using a 1000 μL aliquot of human urine. The LLQ for blood using LSC was 11.6 ng Eq/mL, using a 400 μL aliquot of human blood. The LLQ for feces using LSC was 25.3 ng Eq/mL, using a 0.2‐ to 0.4‐g aliquot of human feces. Treatment period 2 plasma samples that were not quantifiable following LSC analysis at Covance were subsequently reanalyzed for total radioactivity by AMS at GSK. The LLQ using AMS was 15.8 pg Eq/mL, using a 50 μL aliquot of human plasma.
Plasma daprodustat and [^14C]‐GSK1278863 plasma and blood total radioactivity concentration‐time data were analyzed by noncompartmental methods with WinNonlin Version 6.3 or above (Certara, Princeton, New Jersey). Calculations were based on the actual sampling times recorded during the study. From the plasma concentration‐time data, the following PK parameters were determined for daprodustat, its metabolites, [^14C]‐GSK1278863, and total radioactivity, as the data permitted: maximum observed plasma concentration (Cmax), time to Cmax (tmax), area under the plasma concentration–time curve (AUC) from time 0 to the last measurable concentration (AUC0‐t), AUC from time 0 extrapolated to infinity (AUC0–inf), and apparent terminal phase half‐life (t½), following oral and IV dosing. Additionally, daprodustat volume of distribution at steady state (Vss) and the total systemic clearance (CL) were derived following IV dosing, and daprodustat absolute bioavailability (F) was determined from the oral tablet and IV plasma PK data from treatment period 1 with the following equation: F=AUCpo/AUCIV×doseIV/dosepo
To assess relative exposure levels between parent daprodustat and the measured metabolites, the ratio of parent daprodustat/total radioactivity was calculated for the plasma PK parameters following IV and oral administration of [^14C]‐GSK1278863: Cmax, AUC0‐t, and AUC0‐inf.

[2] = Urine and fecal excretion of total radioactivity (mass balance); assay type: in vivo, human; details: 25 mg [14C] oral solution; for total radioactivity recovered (urinary + fecal): 96‐ to 120‐hour collection (day 5) onward
Protocol: On day 1 of treatment period 2, after an overnight fast of at least 8 hours, each participant received 25 mg [^14C]‐GSK1278863 (≈2.31 MBq; 62.5 μCi) as an oral solution; participants continued to fast for 4 hours after dosing.[15] Blood, urine, and fecal samples were collected for a minimum of 144 hours (up to day 7) after dosing, depending on the amount of radioactivity excreted by each participant in excreta collected daily. Liquid scintillation counting (LSC) was performed on these excreta collections on an ongoing basis to assess recovery of the radioactivity dosed. Participants were discharged if ≥90% and <1% of the dose was excreted on both days 6 and 7.
Urine samples for measurement of total radioactivity excreted in urine were collected before dosing in period 1, then over the time periods 0 to 24, 24 to 48, 48 to 72, 72 to 96, 96 to 120, and 120 to 144 hours in period 2. An aliquot of each 24‐hour urine collection was shipped at ambient temperature to Covance (Harrogate, North Yorkshire, UK) for total radioactivity measurement by LSC. […] Total fecal samples were frozen at −70°C, then shipped on cold gel packs to Covance for total radioactivity measurement by LSC (following homogenization). Aliquots of both urine and fecal homogenates were also sent to GlaxoSmithKline (GSK) for characterization and quantification of metabolites (data not reported). • The following parameters were determined from the urine and fecal radiolabeled drug‐related material (total radioactivity) data: • Absolute amount excreted and percentage excreted in urine (Ae [urine] and Fe% [urine]) within each collection period and cumulative urinary recovery and fraction excreted over the total collection period • Absolute amount excreted and percentage excreted in feces (Ae [fecal] and Fe% [fecal]) with each collection period and cumulative fecal recovery and fraction excreted over the total collection period and cumulatively over the collection period
Total excretion (sum of urine and fecal excretion), Ae [total], and Fe% [total] were calculated by collection interval for each participant. […]

[3] = human; ref internal GSK reports; cited from earlier work
[4] = IV infusion, plasma, mean (SD), n = 5
[5] = oral solution, plasma, mean (SD)

O=C(O)CNC(=O)C1C(=O)N(C2CCCCC2)C(=O)N(C2CCCCC2)C1=O [Daprodustat]
AUC0‐inf ratio of plasma daprodustat to plasma total radioactivity ([1]; IV administration): 0.40 | AUC0‐t ratio of plasma daprodustat to plasma total radioactivity ([1]; IV administration): 0.40 | Cmax ratio of plasma daprodustat to plasma total radioactivity ([1]; IV administration): 0.68 | AUC0‐t, total radioactivity ([1]; IV infusion, plasma, mean (SD)): 6.62 (1.20) ng Eq • h/mL | Cmax, total radioactivity ([1]; IV infusion, plasma, mean (SD)): 3.04 (0.49) ng Eq/mL | AUC0‐inf, total radioactivity [1, 4]: 6.79 (1.31) ng Eq • h/mL | CL, total radioactivity [1, 4]: 7.59 (1.50) μg/[ng Eq • h/mL] | Vss, total radioactivity [1, 4]: 36.3 (19.6) μg/[ng Eq/mL] | t½, total radioactivity [1, 4]: 8.88 (6.58) h | tmax, total radioactivity ([1]; IV infusion, plasma): 0.98 h | tmax, total radioactivity ([1]; IV infusion, plasma, listed as [^14C]‐GSK1278863): 0.983 (0.983−1.25) h | parent daprodustat as share of total circulating radioactivity in plasma ([1]; following IV and oral solution administration, AUC ratio): Approximately 40% | blood:plasma ratio of total radioactivity ([1]; from Cmax in blood and plasma after oral solution): 0.46 | AUC0‐inf ratio of plasma daprodustat to plasma total radioactivity ([1]; oral solution administration): 0.42 | AUC0‐t ratio of plasma daprodustat to plasma total radioactivity ([1]; oral solution administration): 0.43 | Cmax ratio of plasma daprodustat to plasma total radioactivity ([1]; oral solution administration): 0.87 | Cmax, total radioactivity ([1]; oral solution, blood, mean (SD), listed as [^14C]‐GSK1278863): 302 ng Eq/mL and 302 (95.6) ng Eq/mL | tmax, total radioactivity ([1]; oral solution, blood): 1.00 (1.00−3.00) h | AUC0‐t, total radioactivity ([1]; oral solution, blood, t = 6 hours, mean (SD)): 835 (154) ^b ng Eq • h/mL | AUC0‐inf, total radioactivity [1, 5]: 2312 (447) ng Eq • h/mL | AUC0‐t, total radioactivity [1, 5]: 2239 (441) ng Eq • h/mL | t½, total radioactivity [1, 5]: 62.4 (9.62) h | Cmax, total radioactivity ([1]; oral solution, plasma, mean (SD), listed as [^14C]‐GSK1278863): 654 ng Eq/mL and 654 (219) ng Eq/mL | tmax, total radioactivity ([1]; oral solution, plasma): 0.76 h | tmax, total radioactivity ([1]; oral solution, plasma, listed as [^14C]‐GSK1278863): 0.758 (0.500−3.00) h | unchanged daprodustat excreted in urine [2]: ≈ 0.5 % of the administered radioactivity | total radioactivity recovered (urinary + fecal) [2]: ≈ 95 % of the administered radioact | total radioactivity recovered (urinary + fecal) ([2]; listed as [^14C]‐GSK1278863): ≈ 95 % of the administered radioactivity | blood:plasma ratio [3]: 1.23
